These results are taken from patent US20100285509A1, “Melanoma-Associated Endogenous Retrovirus (MERV) Derived Peptide Sequences And Their Therapeutic/Diagnostic Use” (priority 2005, published 2010).

Holding throughout (type): binding, human
For test [1], the system named is melanoma sera pool. Description: Epitope screening ELISA of biotinylated peptides with melanoma sera pool. The following applies: FIG. 2. As to the method:
FIG. 2: Selected candidate peptides by Epitope prediction were tested with a melanoma sera pool and a reference sera pool respectively. The mouse derived control peptides K1 (Biotin-SGSG-KPLAQ-NH2) and K2 (Biotin-SGSG-GLAQ-NH2) were used as negative and positive control peptides. ELISA readout of patient sera pool (black bars) given as absorbance determined at 405 nm. All given A405 nm values refer to the measured A405 nm value of each sample minus the blank.
Serum specimens were collected from melanoma patients (diagnosis confirmed by histopathology) at the Department of Dermatology, Medical University of Vienna, Austria. Staging of patients and according classification of sera followed the 2001 US Joint Committee on Cancer guidelines (Balch 2001). Usage of patient sera was approved by the ethical committee of the Medical University of Vienna, confidentially of the study subjects has been protected by respective sample coding. Sera from healthy donors served as negative controls. All sera were stored at −20° C. immediately after blood withdrawal. Melanoma patient derived sera pools and respective reference sera pools from healthy subjects were used for epitope screening and further peptide testing.
Streptavidin-coated 96-well microtiter plates (Mimotopes Pty Ltd., Australia) were blocked with 200 μl/well of 2% bovine albumine (Sigma-Aldrich) in PBST (PBS [0.1 M sodium phosphate, 0.15 M NaCl, pH 7.0]+0.1% v/v Tween20 (PBST)) over night at 4° C. The wells were then washed four times with PBST and incubated with 100 μl/well of 1:500 diluted biotinylated peptides for 2 hours at room temperature. 2 wells per plate were incubated with PBST in the absence of peptide (blank wells). Plates were washed 4 times with PBST. Subsequently, 100 μl of a melanoma-sera pool, diluted 1:40 in 1% bovine albumine/PBST and a reference serum pool (1:40) were added to each well and incubated for 2 h at room temperature. The plate was washed 4 times with PBST and incubated with 100 μl/well of the secondary antibody: goat anti-human IgG (h+l) antibody alkaline-phosphatase conjugated (BETHYL Laboratories, Inc., USA). Detection antibody was diluted 1:1000 in blocking solution and incubated for 1 hour. After 6 washing steps with PBST, 200 μl of a 1.0 mg/ml p-Nitrophenylphosphat substrate solution in 0.2 M Tris-buffer (Sigma-Aldrich) was added to each well. Absorbance was measured on a BDSL Immunoskan PLUS at 405 nm.
During initial screening of various peptides reactive peptides to the melanoma patient derived sera pool were selected and also validated by determining the reactivity to the reference sera pool obtained from healthy volunteers. […] These peptides were tested to determine the experimental antigenicity.
In general terms: In an ELISA, binding on a coated surface is turned into a signal by an enzyme label.

For test [2], the system named is melanoma sera pool. Nature of the test: Peptide testing ELISA, unbiotinylated peptides coated on Nunc Maxisorp F plates. The settings on record: for absorbance (A405 nm): melanoma sera pool dilution 1:50. As to the method:
FIG. 5: Reactivity of serum antibodies with 2 MERV specfic partial overlapping peptides (GHB-G1 and GHB-H1) and 1 autoimmune-related peptide (GHB-17′) tested with 3 different melanoma-sera and reference sera pool dilutions respectively. An HIV peptide was used as negative control peptide. All given A405 nm values refer to the measured A405 nm value of each sample minus the blank.
NUNC Maxisorp F plates were coated with 1.0 μg peptide/well in 100 μl coating buffer (0.1 M sodium carbonate buffer, pH 9.5). 1 well per plate was coated with 100 μl of coating buffer without antigen (blank well). Plates were incubated over night at 4° C. Then plates were washed four times with PEST. Unspecific binding sites were blocked with 200 μl/well of 2% bovine albumine (Sigma-Aldrich) in PBST (PBS+0.1% v/v Tween20 (PBST)) for 1 hour at room temperature. The plates were washed 4 times with PBST. For the assay 100 μl/well of three different sera pool-dilutions (1:50, 1:200, 1:1600) diluted in 1% bovine albumine/PBST were added and incubated for 2 h at room temperature. Plates were washed 4 times with PBST and incubated with 100 μl/well of the secondary antibody: goat anti-human IgG (h+l) antibody alkaline-phosphatase conjugated, obtained from BETHYL Laboratories, Inc., USA (detection antibody was diluted 1:1000 in blocking solution) for 1 hour. After additional 6 times washing step with PBST, color was developed with 200 μl/well of a 1.0 mg/ml p-Nitrophenylphosphat substrate solution in 0.2 M Tris-buffer (Sigma-Aldrich). Absorbance was measured on a BDSL Immunoskan PLUS at 405 nm.
The peptides were tested with the same sera pools as given for the experiments above. As negative control peptide an HIV-derived peptide ([…]) with 1 μg/well was used.
Herve et al. characterise retroviral peptides in the context of autoimmune diseases. […] All three peptides were tested with three melanoma sera pool dilutions ([…], 1:200 and 1:1600). Peptides were coated on Nunc Maxisorp F plates and used to capture serum antibodies, which were then detected using goat anti-human IgG antibodies as shown in FIG. 5. […] GHB-G1 gave a signal of 1.50 even at a melanoma: sera pool dilution 1:200.

Test [3] relates to melanoma sera pool. Description: Epitope mapping ELISA of 25 overlapping env-peptides (FIG. 4). The settings on record: A405 nm melanoma sera pool minus reference sera pool. The source says:
FIG. 4: Epitope mapping of 25 overlapping env-peptides tested with a patient sera pool and a reference sera pool as described above. The first bar represents amino acid 204-220, the second bar represents amino acid 205-221, etc. Del A405 nm refers to the measured A405 nm values of the melanoma sera pool minus the A405 nm values of the reference sera pool of each peptide. One experiment of two performed is shown. Mean values from duplicate trials are shown.
Streptavidin-coated 96-well microtiter plates (Mimotopes Pty Ltd., Australia) were blocked with 200 μl/well of 2% bovine albumine (Sigma-Aldrich) in PBST (PBS [0.1 M sodium phosphate, 0.15 M NaCl, pH 7.0]+0.1% v/v Tween20 (PBST)) over night at 4° C. The wells were then washed four times with PBST and incubated with 100 μl/well of 1:500 diluted biotinylated peptides for 2 hours at room temperature. 2 wells per plate were incubated with PBST in the absence of peptide (blank wells). Plates were washed 4 times with PBST. Subsequently, 100 μl of a melanoma-sera pool, diluted 1:40 in 1% bovine albumine/PBST and a reference serum pool (1:40) were added to each well and incubated for 2 h at room temperature. […] Absorbance was measured on a BDSL Immunoskan PLUS at 405 nm. […]

The test system of test [4] is serum samples from melanoma patients. Description: Optimised ELISA on individual serum samples from melanoma patients. The settings on record: 31 melanoma serum samples; positive = value of 0.39 or above. As to the method: NUNC Polysorp F Peptide Immobiliser plates were coated with 0.125 μg peptide/well in 100 μl coating buffer ((0.1 M sodium carbonate buffer, pH 9.5). Plates were incubated over night at 4° C. Plates were then washed four times with PBST and unspecific binding sites were blocked with 200 μl/well of 2% bovine albumine (Sigma-Aldrich) in PBST (PBS+0.1% v/v Tween20 (PBST)) for 1 hour at room temperature. The plates were washed 4 times with PBST. For the assay 100 μl/well of serial-dilutions of the sera (initial dilution 1:200 in 1% bovine albumine/PBST were added and incubated for 2 h at room temperature. Plates were washed 4 times with PEST and incubated with the secondary antibody (100 μl/well). As secondary antibody an alkaline-phosphatase conjugated goat anti-human IgG (h+1) (BETHYL Laboratories, Inc., USA) diluted 1:1000 in blocking solution was used. Incubation period was 1 hour. After another 6 washing steps with PBST, the substrate was added (1.0 mg/ml p-Nitrophenylphosphat Sigma-Aldrich) in 0.2 M Tris-buffer 200 μl/well) Absorbance was measured on a BDSL Immunoskan PLUS at 405 nm.
For analysis of serum samples from melanoma patients, Nunc Polysorp Immobilizer Amino plates were used. […] 16 serum samples from healthy individuals served as controls to establish a negative treshold, as calculated by the average absorbance plus three standard deviations. […]

Where no end group is shown, it is not given here.

Consider “EMQRKAPPRRRRHRNRA (also: biotinylated (site not given here)) [Peptide A1, Env aa 5-21]”, for which the “reactivity ranking among the 46 tested peptides” value in test [1] is recorded as “most reactive”.
Take “FRPKGKPCPKEIPKESK (also: biotinylated (site not given here)) [Peptide H1, Env aa 220-236]”: the “reactivity ranking among the 46 tested peptides” value in test [1] is “most reactive”. The “absorbance (A405 nm)” value in test [2] (FIG. 5) is recorded as “above 0.50”.
As for “PAELQYRPPPESQYGYP (also: biotinylated (site not given here)) [Peptide E3, Gag aa 219-235]”, in test [1], the “reactivity ranking among the 46 tested peptides” value is on record as “most reactive”.
For the sequence “PWGWGEKGISTPRPKIV (also: biotinylated (site not given here)) [Peptide E2, Env aa 312-328]”, in test [1], the “reactivity ranking among the 46 tested peptides” value was “most reactive”.
In the case of “SYQRSLKFRPKGKPCPKEIP (Melanoma Associated Endogenous Retrovirus) [SEQ ID NO 69, unbiotinylated 20-mer covering peptides 10-13, env aa 213-232]”, in test [2] (unbiotinylated peptides, independent experiment), the “reactivity compared to unbiotinylated 17-mer peptide G1” value is given as “did not exhibit a significant improvement”.
With “YQRSLKFRPKGKPCPKE (Melanoma Associated Endogenous Retrovirus) [Peptide G1, Env aa 214-230]”, the “reactivity ranking among the 46 tested peptides” value in test [1] was “most reactive”. The “reactivity (Del A405 nm)” value in test [3] is given as “lower absorbance in the assay than the three neighbour peptides”. In addition, the “absorbance (A405 nm)” value in test [2] (FIG. 5) is roughly 1.50. Moreover, in test [2] (melanoma sera pool dilution 1:200, FIG. 5), the “absorbance signal (A405 nm)” value came out at 1.50. Moreover, in test [4], the “melanoma sera that did not recognise the epitope” value is given as 16 and the “melanoma serum samples reacting positive” value is on record as 15 out of the 31.
